Consider six molecules from patent US20220340629A1, “Myosin Derived Peptides and Related Compounds with Anticoagulant Activities” (THE SCRIPPS RESEARCH INSTITUTE, priority 0001, published 2022).

Starred links: 1 amine or outer side, 2 acyl side, 3 side chain; linkers in the order of their positions; H or OH if unused. Positions of bridges follow the written chain, without caps; N, C: chain ends. Non-standard residues stand in square brackets, D forms with d. Residues, ends and D or L forms follow the SMILES beside them. 3Pal = N[C@@H](Cc1cccnc1)C(=O)O; Suc = O=C(CCC(=O)[*:2])[*:1]; Nle = CCCC[C@H](N)C(=O)O

In one experiment the test system is thrombin generation in human platelet poor plasma with skeletal muscle myosin. The experiment is described as follows: Assay 2A: thrombin generation, recalcification of human platelet poor plasma + myosin. In kind it is biochemical. To be noted: human platelet poor plasma 30%, myosin 50 nM, CaCl2 10 mmol/L; read-out: 2A (recalcification +myosin). Here is the method:
Activities of the various peptides and derivative compounds were also examined via assays using recalcification of human plasma. [One of] these assay format (2A) involves monitoring thrombin generation in platelet poor plasma (PPP). Specifically, pooled normal human platelet poor plasma (PPP) (obtained from George King Bio Medical Inc., Overland Park, Kans.) (30%) was incubated with skeletal muscle myosin at 50 nM in the presence of peptide in DMSO or DMSO alone for 5 min at 37° C. Then, fluorogenic thrombin substrate solution (Z-Gly-Gly-Arg-AMC) (I-1140) with CaCl2 (10 mmol/L final) alone was added to the reaction mixture (total 110 μl) to initiate coagulation. Thrombin generation was followed continuously for 25 min using SPECTRAmax GEMINI XS fluorometer (Molecular Devices, Sunnyvale, Calif.) with excitation and emission wavelengths set at 360 and 460 nm, respectively. The first derivative of fluorescence versus time was used to produce thrombin generation curves with the correction for substrate consumption and inner filter effect. For this assay 96 well plate (total 110 μL) or 384 well plates (total 30 μL) were used.
Activities obtained from Assay 2A (recalcification of human plasma in the presence of myosin) were used to rank the various peptides listed in Table 3. As noted above, this assay monitors recalcification of plasma to stimulate thrombin generation. In this assay, potency of the compounds was determined as the peptide concentration for 50% inhibition of thrombin generation, defined as “IC50”.
On to `CC[C@H](C)[C@H](NC(=O)[C@H](C)NC(=O)[C@H](CCC(=O)O)NC(=O)[C@@H]1CCCCNC(=O)CCC(=O)NCCCC[C@@H]2NC(=O)[C@H](CCC(=O)O)NC(=O)[C@H](C(C)C)NC(=O)[C@@H](NC(=O)[C@H](C)NC(=O)[C@H](CC(C)C)NC(=O)[C@H](Cc3ccccc3)NC(=O)CNC(=O)[C@H](CCCNC(=N)N)NC(=O)[C@H](CS)NC(=O)[C@H](CCCNC(=N)N)NC(=O)[C@H](C)N)CCCCNC(=O)CCC(=O)NCCCC[C@H](NC(=O)[C@H](CCSC)NC(=O)[C@H](CCCNC(=N)N)NC(=O)[C@H](CCC(N)=O)NC2=O)C(=O)N[C@@H](CCC(=O)O)C(=O)N[C@@H](CCCNC(=N)N)C(=O)N1)C(=O)N[C@@H](Cc1ccccc1)C(=O)N[C@@H](CS)C(=O)N[C@H](C(=O)N[C@@H](CCC(N)=O)C(=O)N[C@@H](Cc1ccc(O)cc1)C(=O)N[C@@H](CC(N)=O)C(=O)N[C@H](C(=O)N[C@@H](CCCNC(=N)N)C(=O)N[C@@H](CO)C(=O)N[C@@H](Cc1ccccc1)C(=O)N[C@@H](CCSC)C(=O)N[C@@H](CC(N)=O)C(=O)N[C@H](C(=O)N[C@@H](CCCCN)C(=O)N[C@@H](Cc1c[nH]cn1)C(=O)N[C@@H](Cc1c[nH]c2ccccc12)C(=O)N1CCC[C@H]1C(=O)N[C@@H](Cc1c[nH]c2ccccc12)C(N)=O)C(C)C)[C@@H](C)CC)[C@@H](C)CC` [HC157] (H-ARCRGFLAKVEKQRMKERKEAIFCIQYNIRSFMNVKHWPW-NH2; linker 9-16, 12-19 via Suc (inferred); N-terminus and C-terminus assumed), for which the IC50 came out at 11 µM. On the same count and under the same terms, the figure for `CC[C@H](C)[C@H](NC(=O)[C@H](C)NC(=O)[C@@H]1CCCCNC(=O)CCC(=O)NCCCC[C@@H]2NC(=O)[C@H](Cc3ccc(O)cc3)NC(=O)[C@H](CCC(=O)O)NC(=O)[C@H](C(C)C)NC(=O)[C@@H](NC(=O)[C@H](C)NC(=O)[C@H](CC(C)C)NC(=O)[C@H](Cc3ccccc3)NC(=O)CNC(=O)[C@H](CCCNC(=N)N)NC(=O)[C@H](CS)NC(=O)[C@H](CCCNC(=N)N)NC(=O)[C@H](C)N)CCCCNC(=O)CCC(=O)NCCCC[C@H](NC(=O)[C@H](CCSC)NC(=O)[C@H](CCCNC(=N)N)NC2=O)C(=O)N[C@@H](CCC(=O)O)C(=O)N[C@@H](CCCNC(=N)N)C(=O)N[C@@H](CCCNC(=N)N)C(=O)N1)C(=O)N[C@@H](Cc1ccccc1)C(=O)N[C@@H](CS)C(=O)N[C@H](C(=O)N[C@@H](CCC(N)=O)C(=O)N[C@@H](Cc1ccc(O)cc1)C(=O)N[C@@H](CC(N)=O)C(=O)N[C@H](C(=O)N[C@@H](CCCNC(=N)N)C(=O)N[C@@H](CO)C(=O)N[C@@H](Cc1ccccc1)C(=O)N[C@@H](CCSC)C(=O)N[C@@H](CC(N)=O)C(=O)N[C@H](C(=O)N[C@@H](CCCCN)C(=O)N[C@@H](Cc1c[nH]cn1)C(=O)N[C@@H](Cc1c[nH]c2ccccc12)C(=O)N1CCC[C@H]1C(=O)N[C@@H](Cc1c[nH]c2ccccc12)C(N)=O)C(C)C)[C@@H](C)CC)[C@@H](C)CC` [HC158] (H-ARCRGFLAKVEYKRMKERRKAIFCIQYNIRSFMNVKHWPW-NH2; linker 9-16, 13-20 via Suc (inferred); N-terminus and C-terminus assumed) is 5.8 µM; for `CC[C@H](C)[C@@H]1NC(=O)[C@H](C)NC(=O)[C@@H](NC(=O)[C@H](CCCNC(=N)N)NC(=O)[C@H](CCCNC(=N)N)NC(=O)[C@H](CCC(=O)O)NC(=O)[C@@H]2CCCCNC(=O)CCC(=O)NCCCC[C@H](NC(=O)[C@H](C)NC(=O)[C@H](CC(C)C)NC(=O)[C@H](Cc3ccccc3)NC(=O)CNC(=O)[C@H](CCCNC(=N)N)NC(=O)[C@H](CS)NC(=O)[C@H](CCCNC(=N)N)NC(=O)[C@H](C)N)C(=O)N[C@@H](C(C)C)C(=O)N[C@@H](CCC(=O)O)C(=O)N[C@@H](Cc3ccc(O)cc3)C(=O)N[C@@H](CCC(N)=O)C(=O)N[C@@H](CCCNC(=N)N)C(=O)N[C@@H](CCSC)C(=O)N2)CCCCNC(=O)CCC(=O)NCCCC[C@@H](C(=O)N[C@@H](CC(N)=O)C(=O)N[C@H](C(=O)N[C@@H](CCCNC(=N)N)C(=O)N[C@@H](CO)C(=O)N[C@@H](Cc2ccccc2)C(=O)N[C@@H](CCSC)C(=O)N[C@@H](CC(N)=O)C(=O)N[C@H](C(=O)N[C@@H](CCCCN)C(=O)N[C@@H](Cc2c[nH]cn2)C(=O)N[C@@H](Cc2c[nH]c3ccccc23)C(=O)N2CCC[C@H]2C(=O)N[C@@H](Cc2c[nH]c3ccccc23)C(N)=O)C(C)C)[C@@H](C)CC)NC(=O)[C@H](CCC(N)=O)NC(=O)[C@H]([C@@H](C)CC)NC(=O)[C@H](CS)NC(=O)[C@H](Cc2ccccc2)NC1=O` [HC159] (H-ARCRGFLAKVEYQRMKERRKAIFCIQKNIRSFMNVKHWPW-NH2; linker 9-16, 20-27 via Suc (inferred); N-terminus and C-terminus assumed) it is 13.3 µM. With `CC[C@H](C)[C@H](NC(=O)[C@H](C)NC(=O)[C@H](CCC(=O)O)NC(=O)[C@H](CCCNC(=N)N)NC(=O)[C@H](CCCNC(=N)N)NC(=O)[C@H](CCC(=O)O)NC(=O)[C@@H]1CCCCNC(=O)CCC(=O)NCCCC[C@H](NC(=O)[C@H](C)NC(=O)[C@H](CC(C)C)NC(=O)[C@H](Cc2ccccc2)NC(=O)CNC(=O)[C@H](CCCNC(=N)N)NC(=O)[C@H](CS)NC(=O)[C@H](CCCNC(=N)N)NC(=O)[C@H](C)N)C(=O)N[C@@H](C(C)C)C(=O)N[C@@H](CCC(=O)O)C(=O)N[C@@H](Cc2ccc(O)cc2)C(=O)N[C@@H](CCC(N)=O)C(=O)N[C@@H](CCCNC(=N)N)C(=O)N[C@@H](CCSC)C(=O)N1)C(=O)N[C@@H](Cc1ccccc1)C(=O)N[C@H]1CCCCNC(=O)CCC(=O)NCCCC[C@@H](C(=O)N[C@@H](Cc2ccccc2)C(=O)N[C@@H](CCSC)C(=O)N[C@@H](CC(N)=O)C(=O)N[C@H](C(=O)N[C@@H](CCCCN)C(=O)N[C@@H](Cc2c[nH]cn2)C(=O)N[C@@H](Cc2c[nH]c3ccccc23)C(=O)N2CCC[C@H]2C(=O)N[C@@H](Cc2c[nH]c3ccccc23)C(N)=O)C(C)C)NC(=O)[C@H](CCCNC(=N)N)NC(=O)[C@H]([C@@H](C)CC)NC(=O)[C@H](CC(N)=O)NC(=O)[C@H](Cc2ccc(O)cc2)NC(=O)[C@H](CCC(N)=O)NC(=O)[C@H]([C@@H](C)CC)NC1=O` [HC160] (H-ARCRGFLAKVEYQRMKERREAIFKIQYNIRKFMNVKHWPW-NH2; linker 9-16, 24-31 via Suc (inferred); N-terminus and C-terminus assumed), the IC50 amounted to 3.4 µM. Regarding `CC[C@H](C)[C@H](NC(=O)[C@H](C)NC(=O)[C@H](CCC(=O)O)NC(=O)[C@H](CCCNC(=N)N)NC(=O)[C@H](CCCNC(=N)N)NC(=O)[C@H](CCC(=O)O)NC(=O)[C@@H]1CCCCNC(=O)CCC(=O)NCCCC[C@H](NC(=O)[C@H](C)NC(=O)[C@H](CC(C)C)NC(=O)[C@H](Cc2ccccc2)NC(=O)CNC(=O)[C@H](CCCNC(=N)N)NC(=O)[C@H](CS)NC(=O)[C@H](CCCNC(=N)N)NC(=O)[C@H](C)N)C(=O)N[C@@H](C(C)C)C(=O)N[C@@H](CCC(=O)O)C(=O)N[C@@H](Cc2ccc(O)cc2)C(=O)N[C@@H](CCC(N)=O)C(=O)N[C@@H](CCCNC(=N)N)C(=O)N[C@@H](CCSC)C(=O)N1)C(=O)N[C@@H](Cc1ccccc1)C(=O)N[C@@H](CS)C(=O)N[C@H](C(=O)N[C@@H](CCC(N)=O)C(=O)N[C@@H](Cc1ccc(O)cc1)C(=O)N[C@@H](CC(N)=O)C(=O)N[C@H](C(=O)N[C@@H](CCCNC(=N)N)C(=O)N[C@H]1CCCCNC(=O)CCC(=O)NCCCC[C@@H](C(=O)N2CCC[C@H]2C(=O)N[C@@H](Cc2c[nH]c3ccccc23)C(N)=O)NC(=O)[C@H](Cc2c[nH]cn2)NC(=O)[C@H](CCCCN)NC(=O)[C@H](C(C)C)NC(=O)[C@H](CC(N)=O)NC(=O)[C@H](CCSC)NC(=O)[C@H](Cc2ccccc2)NC1=O)[C@@H](C)CC)[C@@H](C)CC` [HC161] (H-ARCRGFLAKVEYQRMKERREAIFCIQYNIRKFMNVKHKPW-NH2; linker 9-16, 31-38 via Suc (inferred); N-terminus and C-terminus assumed), the IC50 came out at 6.4 µM.

Consider `CCCC[C@H](NC(=O)[C@H](Cc1c[nH]c2ccccc12)NC(=O)[C@@H]1CCCN1C(=O)[C@H](Cc1c[nH]c2ccccc12)NC(=O)[C@H](Cc1c[nH]cn1)NC(=O)[C@H](CCCCN)NC(=O)[C@@H](NC(=O)[C@H](CC(N)=O)NC(=O)[C@H](CCCC)NC(=O)[C@H](Cc1ccccc1)NC(=O)[C@H](CO)NC(=O)[C@H](CCCNC(=N)N)NC(=O)[C@@H](NC(=O)[C@H](CC(N)=O)NC(=O)[C@H](Cc1ccc(O)cc1)NC(=O)[C@H](CCC(N)=O)NC(=O)[C@@H](NC(=O)[C@H](CS)NC(=O)[C@H](Cc1cccnc1)NC(=O)[C@@H](NC(=O)[C@H](C)N)[C@@H](C)CC)[C@@H](C)CC)[C@@H](C)CC)C(C)C)C(=O)N[C@@H](CCCCN)C(N)=O` [HC178] (H-AI[3Pal]CIQYNIRSF[Nle]NVKHWPW[Nle]K-NH2; N-terminus assumed), for which the IC50 amounted to 13 µM.

The target of the next experiment is skeletal muscle myosin-supported prothrombin activation by factors Xa and Va (Homo sapiens, UniProt P00742). The experiment can be described thus: Assay 1A: prothrombin activation by factor Xa/factor Va/myosin in purified system. In kind it is biochemical, human factors Xa and Va; rabbit skeletal muscle myosin. To be noted: purified system; skeletal muscle myosin, factor Va 5 nM, factor Xa 0.2 nM, prothrombin 0.75 μM, 10 min; read-out: 1A (+myosin).
Sequence of skeletal muscle myosin-supported prothrombin activation by factors Xa and Va (P00742 41-179): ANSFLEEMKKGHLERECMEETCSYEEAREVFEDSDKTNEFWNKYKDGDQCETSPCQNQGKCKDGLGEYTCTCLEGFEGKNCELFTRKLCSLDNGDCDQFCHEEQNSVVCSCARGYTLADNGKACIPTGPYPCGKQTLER
Sequence of skeletal muscle myosin-supported prothrombin activation by factors Xa and Va (P00742 235-488): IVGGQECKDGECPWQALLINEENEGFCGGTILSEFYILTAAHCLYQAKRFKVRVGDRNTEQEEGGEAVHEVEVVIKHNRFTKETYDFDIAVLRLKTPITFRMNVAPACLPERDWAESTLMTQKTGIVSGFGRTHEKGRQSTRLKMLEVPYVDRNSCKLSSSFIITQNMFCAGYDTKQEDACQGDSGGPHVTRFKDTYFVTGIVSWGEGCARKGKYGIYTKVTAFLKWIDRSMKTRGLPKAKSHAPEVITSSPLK
Sequence of skeletal muscle myosin-supported prothrombin activation by factors Xa and Va (P12259 29-737 partner): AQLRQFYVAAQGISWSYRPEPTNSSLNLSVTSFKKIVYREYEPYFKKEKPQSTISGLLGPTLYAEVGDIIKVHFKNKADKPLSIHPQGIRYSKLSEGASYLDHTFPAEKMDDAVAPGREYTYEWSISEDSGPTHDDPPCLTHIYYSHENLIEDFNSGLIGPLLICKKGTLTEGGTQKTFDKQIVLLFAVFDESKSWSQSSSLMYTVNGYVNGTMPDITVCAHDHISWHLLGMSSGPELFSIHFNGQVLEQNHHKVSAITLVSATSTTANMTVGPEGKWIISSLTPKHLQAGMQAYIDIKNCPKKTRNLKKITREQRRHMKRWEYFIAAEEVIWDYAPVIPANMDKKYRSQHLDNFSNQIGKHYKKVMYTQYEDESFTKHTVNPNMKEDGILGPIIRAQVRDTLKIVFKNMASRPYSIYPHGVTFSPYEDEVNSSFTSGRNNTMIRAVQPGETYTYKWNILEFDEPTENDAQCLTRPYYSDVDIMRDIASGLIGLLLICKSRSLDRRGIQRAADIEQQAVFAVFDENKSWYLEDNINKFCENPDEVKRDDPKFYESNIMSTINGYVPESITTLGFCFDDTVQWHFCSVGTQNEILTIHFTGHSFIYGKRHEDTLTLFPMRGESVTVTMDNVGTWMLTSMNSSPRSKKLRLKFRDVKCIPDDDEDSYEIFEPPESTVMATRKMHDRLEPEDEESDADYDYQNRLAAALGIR
Sequence of skeletal muscle myosin-supported prothrombin activation by factors Xa and Va (P12259 1574-2224 partner): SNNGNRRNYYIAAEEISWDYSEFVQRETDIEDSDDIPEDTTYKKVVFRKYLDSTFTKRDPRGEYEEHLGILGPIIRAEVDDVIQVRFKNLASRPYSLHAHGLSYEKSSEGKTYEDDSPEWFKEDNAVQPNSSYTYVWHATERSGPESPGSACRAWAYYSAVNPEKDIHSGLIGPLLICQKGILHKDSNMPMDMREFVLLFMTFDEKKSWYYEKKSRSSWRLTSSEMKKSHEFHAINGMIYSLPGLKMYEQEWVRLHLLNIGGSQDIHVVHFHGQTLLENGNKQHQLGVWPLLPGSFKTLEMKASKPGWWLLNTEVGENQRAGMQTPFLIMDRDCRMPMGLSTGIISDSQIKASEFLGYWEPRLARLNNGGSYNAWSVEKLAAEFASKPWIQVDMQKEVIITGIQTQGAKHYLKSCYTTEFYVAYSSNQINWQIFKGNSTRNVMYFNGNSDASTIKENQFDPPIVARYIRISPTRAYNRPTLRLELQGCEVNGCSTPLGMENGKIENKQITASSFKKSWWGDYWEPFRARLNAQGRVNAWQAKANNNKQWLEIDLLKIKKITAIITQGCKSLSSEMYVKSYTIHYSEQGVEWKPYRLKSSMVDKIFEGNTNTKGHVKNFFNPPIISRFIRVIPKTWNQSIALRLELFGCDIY
Take `CCCC[C@H](NC(=O)[C@H](Cc1c[nH]c2ccccc12)NC(=O)[C@@H]1CCCN1C(=O)[C@H](Cc1c[nH]c2ccccc12)NC(=O)[C@H](Cc1c[nH]cn1)NC(=O)[C@H](CCCCN)NC(=O)[C@@H](NC(=O)[C@H](CC(N)=O)NC(=O)[C@H](CCCC)NC(=O)[C@H](Cc1ccccc1)NC(=O)[C@H](CO)NC(=O)[C@H](CCCNC(=N)N)NC(=O)[C@@H](NC(=O)[C@H](CC(N)=O)NC(=O)[C@H](Cc1ccc(O)cc1)NC(=O)[C@H](CCC(N)=O)NC(=O)[C@@H](NC(=O)[C@H](CS)NC(=O)[C@H](Cc1cccnc1)NC(=O)[C@@H](NC(=O)[C@H](C)N)[C@@H](C)CC)[C@@H](C)CC)[C@@H](C)CC)C(C)C)C(=O)N[C@@H](CCCCN)C(N)=O` [HC178] (H-AI[3Pal]CIQYNIRSF[Nle]NVKHWPW[Nle]K-NH2; N-terminus assumed): the IC50 turned out to be 1.7 µM.
